Results: PMC6089664 (Clinical pharmacology and therapeutics, 2017)
Read-outs that look alike come from different tables or passages of the source.

Legend:
[1] = tested on: 25-gene IFN score; experiment: Correlation of AUC24,SS with whole blood 25-gene IFN score; type: in vivo, human; conditions: subset (5) of CANDLE patients
[2] = Population pharmacokinetic; type: in vivo, human; conditions: for AUC24,SS/Dose: AUC24,SS/total daily dose
[3] = tested on: serum IP-10; experiment: Correlation of AUC24,SS with serum CXCL10/IP-10 levels; type: in vivo, human; conditions: 189 observations in 18 patients, linear mixed model, p-value for slope 0.0002
[4] = cited from earlier work
[5] = 18 patients, 54 patient-years of exposure
[6] = popPK final model, 18 patients, oral

CCS(=O)(=O)N1CC(CC#N)(n2cc(-c3ncnc4[nH]ccc34)cn2)C1 [baricitinib, Baricitinib]
patients who developed BK viremia [5]: 44% | patients with Herpes Zoster [5]: 1 patient | deaths during the program (mean exposure 35.4 months): No deaths | most frequently reported TEAEs (over 54 patient-years): Upper respiratory tract infection | AUC24,SS at which CANDLE patients normalized their IFN scores [1]: 1500 to 2000 nM·h | projected initial exposure (AUC24,SS) with proposed starting dose ([2]; 20–40kg, eGFR ≥120 mL/min/1.73 m^2, initial dose 6 mg/day BID): 1077 to 2688 nM·h | projected initial exposure (AUC24,SS) with proposed starting dose ([2]; <20kg, eGFR ≥120 mL/min/1.73 m^2, initial dose 6 mg/day TID): 1769 to 2112 nM·h | projected initial exposure (AUC24,SS) with proposed starting dose ([2]; >40kg, eGFR ≥120 mL/min/1.73 m^2, initial dose 8 mg/day BID): 1082 to 1958 nM·h | Covariate effect of GFR on Clearance, parameter for GFR-CL (%SEE) ([2]; CL/Ftypical=9.74×(eGFR/146.82)^0.444): 0.444 (24.8%) | Covariate effect of Weight on V/F, parameter for WTV-V (%SEE) ([2]; V/Ftypical = 67.1 × e^0.0192·(WTV−27.2)): 0.0192 (15.0%) | geometric mean AUC24,SS at clinically effective doses ([2]; all patients, final PK assessments): ~ 2388 nM*h | dose proportionality of PK ([2]; dosing range of 1–14 mg daily): dose linearity | AUC24,SS/Dose ([2]; eGFR ≥120 ml/min/1.73 m^2, 20–40kg (n=5), geometric mean (%CV)): 292 nM·h/mg | AUC24,SS/Dose ([2]; eGFR ≥120 ml/min/1.73 m^2, <20kg (n=2), geometric mean (%CV)): 322 nM·h/mg | AUC24,SS/Dose ([2]; eGFR ≥120 ml/min/1.73 m^2, >40kg (n=5), geometric mean (%CV)): 193 nM·h/mg | AUC ([2]; human, plasma, oral, 6 mg/day, AUC24,SS, eGFR <120 ml/min/1.73 m^2, <20kg (n=2), final PK visit, geometric mean (%CV)): 3.08 µM·h | CL/F ([2]; human, plasma, oral, 6.9 mg/day): 5.33 mL/min/kg | half-life ([2]; human, plasma, oral, 6.9 mg/day, t1/2, eGFR ≥120 ml/min/1.73 m^2, 20–40kg (n=5), final PK visit, geometric mean (%CV)): 5 h | CL/F ([2]; human, plasma, oral, 8 mg/day): 9.33 mL/min/kg | AUC ([2]; human, plasma, oral, 8 mg/day, AUC24,SS, eGFR ≥120 ml/min/1.73 m^2, <20kg (n=2), final PK visit, geometric mean (%CV)): 2.58 µM·h | Cmax ([2]; human, plasma, oral, 8 mg/day, eGFR ≥120 ml/min/1.73 m^2, <20kg (n=2), final PK visit, geometric mean (%CV)): 171 nM | half-life ([2]; human, plasma, oral, 8 mg/day, t1/2, eGFR ≥120 ml/min/1.73 m^2, <20kg (n=2), final PK visit, geometric mean (%CV)): 4.4 h | half-life ([2]; human, plasma, oral, 10 mg/day, t1/2, eGFR ≥120 ml/min/1.73 m^2, >40kg (n=5), final PK visit, geometric mean (%CV)): 7 h | AUC ([2]; human, plasma, oral, AUC24,SS, eGFR <120 ml/min/1.73 m^2, >40kg (n=3), final PK visit, geometric mean (%CV)): 2.53 µM·h | AUC ([2]; human, plasma, oral, AUC24,SS, eGFR ≥120 ml/min/1.73 m^2, 20–40kg (n=5), final PK visit, geometric mean (%CV)): 2.02 µM·h | AUC ([2]; human, plasma, oral, AUC24,SS, eGFR ≥120 ml/min/1.73 m^2, >40kg (n=5), final PK visit, geometric mean (%CV)): 1.94 µM·h | Cmax ([2]; human, plasma, oral, eGFR <120 ml/min/1.73 m^2, <20kg (n=2), final PK visit, geometric mean (%CV)): 229 nM | Cmax ([2]; human, plasma, oral, eGFR <120 ml/min/1.73 m^2, >40kg (n=3), final PK visit, geometric mean (%CV)): 180 nM | Cmax ([2]; human, plasma, oral, eGFR ≥120 ml/min/1.73 m^2, 20–40kg (n=5), final PK visit, geometric mean (%CV)): 150 nM | Cmax ([2]; human, plasma, oral, eGFR ≥120 ml/min/1.73 m^2, >40kg (n=5), final PK visit, geometric mean (%CV)): 136 nM | half-life ([2]; human, plasma, oral, estimated half-life, patient O3, >40 kg, eGFR 54–76 mL/min/1.73 m^2): 17 to 19.2 h | AUC ([2]; human, plasma, oral, geometric mean AUC24,SS at clinically effective doses, all patients, final PK assessments): 2.39 µM·h | half-life ([2]; human, plasma, oral, t1/2, eGFR <120 ml/min/1.73 m^2, <20kg (n=2), final PK visit, geometric mean (%CV)): 4.8 h | half-life ([2]; human, plasma, oral, t1/2, eGFR <120 ml/min/1.73 m^2, >40kg (n=3), final PK visit, geometric mean (%CV)): 7.8 h | Vd/F ([2]; human, plasma, po): 67.1 L | Absorption duration D1, population estimate (%SEE) [2, 6]: 0.971 (14.8%) hr | Apparent Clearance CL/F, population estimate (%SEE) [2, 6]: 9.74 (9.57%) L/hr | slope of correlation of AUC24,SS with serum IP-10 levels [3]: −0.197 | half-life ([4]; RA population): 12.5 h | half-life ([4]; healthy adult subjects): 10 h | effect of renal impairment on Cmax ([4]; moderate and severe renal impairment, ref data on file, Eli Lilly and Company): minimal effect | half-life ([4]; psoriasis patients): 12.8 h
